We go through ten molecules from patent EP4813984A1 (Jiangsu Hengrui Pharmaceuticals Co., Ltd., priority 2023, dated 2025).

In general, pEC50 refers to −log10 of the EC50, conventionally taken in molar units.

pEC50: −log10 of the molar value.

T1 sequence (P43220 24-463): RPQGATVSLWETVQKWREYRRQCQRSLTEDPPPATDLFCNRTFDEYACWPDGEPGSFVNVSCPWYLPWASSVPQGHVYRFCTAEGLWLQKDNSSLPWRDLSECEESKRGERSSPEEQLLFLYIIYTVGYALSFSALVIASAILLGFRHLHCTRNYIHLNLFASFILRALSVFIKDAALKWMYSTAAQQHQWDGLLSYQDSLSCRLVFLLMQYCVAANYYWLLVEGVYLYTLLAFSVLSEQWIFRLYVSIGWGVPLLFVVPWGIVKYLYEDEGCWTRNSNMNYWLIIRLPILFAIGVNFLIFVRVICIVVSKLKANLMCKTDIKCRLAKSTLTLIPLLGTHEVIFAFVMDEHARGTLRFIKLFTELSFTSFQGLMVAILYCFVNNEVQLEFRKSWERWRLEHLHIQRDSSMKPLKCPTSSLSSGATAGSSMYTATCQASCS

The experiment concerns the target T1, hGLP-1 receptor (Homo sapiens, UniProt P43220).
T1 construct: expressed in transfected cells; host or cells: CHO-K1 (stably transfected with hGLP-1 receptor plasmid and CRE-luc plasmid)
In words: Agonist activity against GLP-1 receptor (CRE-luciferase reporter, ONE-Glo Luciferase Assay System). The format is cell-based. The following applies: CHO-K1/CRE-luc/hGLP-1 receptor cells; 5 h incubation with compound; chemiluminescence readout. An excerpt: This experiment was intended to test the agonist activity of compound molecules against hGLP-1 receptor and evaluate the in vitro activity of the molecules according to EC50. In this experiment, ONE-Glo™ Luciferase Assay System (ONE-Glo™ Luciferase Assay System, Promega, E6110) was used. Under the action of the compound molecules, GLP-1R downstream signaling pathways were activated to cause elevated cAMP level. The binding of cAMP to CRE could initiate the transcriptional expression of a CRE downstream luciferase gene. The luciferase could emit fluorescence when reacting with a substrate thereof. The fluorescence signal, which reflected the activity of the compound for agonizing GLP-1 receptor, was measured by means ONE-Glo™ reagent.
A stably transfected CHO-K1/CRE-luc/hGLP-1 receptor cell strain (hGLP-1 receptor plasmid constructed in-house and CRE-luc plasmid Promega E8471) was constructed. CHO-K1/CRE-luc/hGLP-1 receptor cells were digested, centrifuged, and then resuspended. The single cell suspension was uniformly mixed and adjusted to a viable cell density of 2.78 × 10^5 cells/ml with a cell culture medium (DME/F-12 + 10% FBS). The resulting solution was added to a 96-well cell culture plate at 90 µL/well (Corning, #3903). The culture plate was incubated in an incubator for 16 h (37°C, 5% CO2).
The compound was dissolved in DMSO to prepare a stock solution with an initial concentration of 20 mM. The starting concentration of the small molecule compound was 0.02 mM. The compound was subjected to 3-fold dilution for 10 points, wherein the 11th point was DMSO. Another 96-well plate was taken, to which was added 95 µL/well of a cell culture medium (DME/F-12 + 10% FBS), followed by 5 µL/well of test samples with different concentrations. The mixtures were uniformly mixed. Next, 10 µL/well of test samples with different concentrations were added to the cell culture plate, with two duplicate wells for each sample. The culture plate was incubated in an incubator for 5 h (37°C, 5% CO2). The 96-well cell culture plate was taken out. 100 µL/well of ONE-Glo™ reagent was added, followed by incubation at room temperature for 10 minutes. Chemiluminescence was measured in and by a microplate reader (PHERAstar FS, BMG labtech).
Data were processed and analyzed using Microsoft Excel and Graphpad Prism 10. EC50 values of the compounds were obtained. Table 1. Agonist activity of the compounds of the present invention against hGLP-1 receptor
Background: Reporter assays use an easily measured gene product as a stand-in for the process of interest.
For `Cc1cc(-n2nc3c(c2N2C[C@@H]4COc5c(ccc6c5cnn6C5CC5)N4C2=O)[C@H](C)N(C(=O)c2cc4cc([C@H]5CCOC(C)(C)C5)ccc4n2[C@@]2(c4noc(=O)[nH]4)C[C@@H]2C)CC3)cc(C)c1F` [Compound 24, (R)-1-cyclopropyl-7-((S)-5-(5-((S)-2,2-dimethyltetrahydro-2H-pyran-4-yl)-1-((1S,2S)-2-methyl-1-(5-oxo-4,5-dihydro-1,2,4-oxadiazol-3-yl)cyclopropyl)-1H-indole-2-carbonyl)-2-(4-fluoro-3,5-dimethylphenyl)-4-methyl-4,5,6,7-tetrahydro-2H-pyrazolo[4,3-c]pyridin-3-yl)-5,5a,6,7-tetrahydro-1H,8H-imidazo[1',5':4,5][1,4]oxazino[2,3-e]indazol-8-one], the pEC50 was 10.52 and the Emax is 18.51 fold.
With `Cc1cc(-n2nc3c(c2-c2cncn(-c4ccc5c(cnn5C5CC5)c4)c2=O)[C@H](C)N(C(=O)c2cc4cc([C@H]5CCOC(C)(C)C5)ccc4n2[C@@]2(c4noc(=O)[nH]4)C[C@@H]2C)CC3)cc(C)c1F` [Compound 41, 3-((1S,2S)-1-(2-((S)-3-(1-(1-cyclopropyl-1H-indazol-5-yl)-6-oxo-1,6-dihydropyrimidin-5-yl)-2-(4-fluoro-3,5-dimethylphenyl)-4-methyl-4,5,6,7-tetrahydro-2H-pyrazolo[4,3-c]pyridine-5-carbonyl)-5-((S)-2,2-dimethyltetrahydro-2H-pyran-4-yl)-1H-indol-1-yl)-2-methylcyclopropyl)-1,2,4-oxadiazol-5(4H)-one], the negative-log EC50 (pEC50) was 10.30 and the Emax is listed as 18.56 fold.
Taken in the same sequence, the figures for `Cc1cc(-n2nc3c(c2N2C[C@@H]4COc5c(ccc6c5cnn6C)N4C2=O)[C@H](C)N(C(=O)c2cc4cc([C@H]5CCOC(C)(C)C5)ccc4n2[C@@]2(c4noc(=O)[nH]4)C[C@@H]2C)CC3)cc(C)c1F` [Compound 23, (R)-7-((S)-5-(5-((S)-2,2-dimethyltetrahydro-2H-pyran-4-yl)-1-((1S,2S)-2-methyl-1-(5-oxo-4,5-dihydro-1,2,4-oxadiazol-3-yl)cyclopropyl)-1H-indole-2-carbonyl)-2-(4-fluoro-3,5-dimethylphenyl)-4-methyl-4,5,6,7-tetrahydro-2H-pyrazolo[4,3-c]pyridin-3-yl)-1-methyl-5,5a,6,7-tetrahydro-1H,8H-imidazo[1',5':4,5][1,4]oxazino[2,3-e]indazol-8-one] were 10.70 and 22.76 fold.
On the same counts, the results for `Cc1cc(-n2nc3c(c2N2C[C@@H]4COc5cc6c(cnn6CC(F)(F)F)c(F)c5N4C2=O)[C@H](C)N(C(=O)c2cc4cc([C@H]5CCOC(C)(C)C5)ccc4n2[C@@]2(c4noc(=O)[nH]4)C[C@@H]2C)CC3)cc(C)c1F` [Compound 29, (R)-2-((S)-5-(5-((S)-2,2-dimethyltetrahydro-2H-pyran-4-yl)-1-((1S,2S)-2-methyl-1-(5-oxo-4,5-dihydro-1,2,4-oxadiazol-3-yl)cyclopropyl)-1H-indole-2-carbonyl)-2-(4-fluoro-3,5-dimethylphenyl)-4-methyl-4,5,6,7-tetrahydro-2H-pyrazolo[4,3-c]pyridin-3-yl)-10-fluoro-7-(2,2,2-trifluoroethyl)-2,3,3a,4-tetrahydro-1H,7H-imidazo[1',5':4,5][1,4]oxazino[3,2-f]indazol-1-one] are 10.70 and 19.58 fold.
For the molecule `Cc1cc(-n2nc3c(c2N2C[C@@H]4COc5cc6c(cnn6C(C)C)c(F)c5N4C2=O)[C@H](C)N(C(=O)c2cc4cc([C@H]5CCOC(C)(C)C5)ccc4n2[C@@]2(c4noc(=O)[nH]4)C[C@@H]2C)CC3)cc(C)c1F` [Compound 40, (R)-2-((S)-5-(5-((S)-2,2-dimethyltetrahydro-2H-pyran-4-yl)-1-((1S,2S)-2-methyl-1-(5-oxo-4,5-dihydro-1,2,4-oxadiazol-3-yl)cyclopropyl)-1H-indole-2-carbonyl)-2-(4-fluoro-3,5-dimethylphenyl)-4-methyl-4,5,6,7-tetrahydro-2H-pyrazolo[4,3-c]pyridin-3-yl)-10-fluoro-7-isopropyl-2,3,3a,4-tetrahydro-1H,7H-imidazo[1',5':4,5][1,4]oxazino[3,2-f]indazol-1-one], the pEC50 is 10.52 and the Emax stood at 19.36 fold.
On the same counts, the results for `Cc1cc(-n2nc3c(c2N2C[C@@H]4COc5cc6c(cnn6CC6CC6)c(F)c5N4C2=O)[C@H](C)N(C(=O)c2cc4cc([C@H]5CCOC(C)(C)C5)ccc4n2[C@@]2(c4noc(=O)[nH]4)C[C@@H]2C)CC3)cc(C)c1F` [Compound 51, (R)-7-(cyclopropylmethyl)-2-((S)-5-(5-((S)-2,2-dimethyltetrahydro-2H-pyran-4-yl)-1-((1S,2S)-2-methyl-1-(5-oxo-4,5-dihydro-1,2,4-oxadiazol-3-yl)cyclopropyl)-1H-indole-2-carbonyl)-2-(4-fluoro-3,5-dimethylphenyl)-4-methyl-4,5,6,7-tetrahydro-2H-pyrazolo[4,3-c]pyridin-3-yl)-10-fluoro-2,3,3a,4-tetrahydro-1H,7H-imidazo[1',5':4,5][1,4]oxazino[3,2-f]indazol-1-one] are 10.70 and 21.19 fold.
On the same counts, the results for `Cc1cc(-n2nc3c(c2-c2cccn(-c4ccc5c(cnn5C)c4)c2=O)[C@H](C)N(C(=O)c2cc4cc([C@H]5CCOC(C)(C)C5)ccc4n2[C@@]2(c4noc(=O)[nH]4)C[C@@H]2C)CC3)cc(C)c1F` [Compound 3, 3-((1S,2S)-1-(5-((S)-2,2-dimethyltetrahydro-2H-pyran-4-yl)-2-((S)-2-(4-fluoro-3,5-dimethylphenyl)-4-methyl-3-(1-(1-methyl-1H-indazol-5-yl)-2-oxo-1,2-dihydropyridin-3-yl)-4,5,6,7-tetrahydro-2H-pyrazolo[4,3-c]pyridine-5-carbonyl)-1H-indol-1-yl)-2-methylcyclopropyl)-1,2,4-oxadiazol-5(4H)-one] are 10.05 and 19.88 fold.
As to `Cc1cc(-n2nc3c(c2N2C[C@@H]4COc5c(c(F)cc6c5cnn6C5CC5)N4C2=O)[C@H](C)N(C(=O)c2cc4cc([C@H]5CCOC(C)(C)C5)ccc4n2[C@@]2(c4noc(=O)[nH]4)C[C@@H]2C)CC3)cc(C)c1F` [Compound 37, (R)-1-cyclopropyl-7-((S)-5-(5-((S)-2,2-dimethyltetrahydro-2H-pyran-4-yl)-1-((1S,2S)-2-methyl-1-(5-oxo-4,5-dihydro-1,2,4-oxadiazol-3-yl)cyclopropyl)-1H-indole-2-carbonyl)-2-(4-fluoro-3,5-dimethylphenyl)-4-methyl-4,5,6,7-tetrahydro-2H-pyrazolo[4,3-c]pyridin-3-yl)-10-fluoro-5,5a,6,7-tetrahydro-1H,8H-imidazo[1',5':4,5][1,4]oxazino[2,3-e]indazol-8-one], the negative logarithm of the EC50 (pEC50) is 10.52 and the Emax is recorded as 18.06 fold.
With `Cc1cc(-n2nc3c(c2-n2ccn(-c4ccc5c(cnn5C)c4F)c2=O)[C@H](C)N(C(=O)c2cc4cc5c(cc4n2[C@@]2(c4noc(=O)[nH]4)C[C@@H]2C)OCC2COCCC52)CC3)cc(C)c1F` (stereo partly drawn) [Compound 4, 3-((1S,2S)-1-(9-((S)-3-(3-(4-fluoro-1-methyl-1H-indazol-5-yl)-2-oxo-2,3-dihydro-1H-imidazol-1-yl)-2-(4-fluoro-3,5-dimethylphenyl)-4-methyl-4,5,6,7-tetrahydro-2H-pyrazolo[4,3-c]pyridine-5-carbonyl)-1,4a,5,11b-tetrahydro-4H-pyrano[4',3':4,5]pyrano[3,2-f]indol-8(2H)-yl)-2-methylcyclopropyl)-1,2,4-oxadiazol-5(4H)-one], the negative logarithm of the EC50 (pEC50) was 9.41 and the Emax came out at 16.51 fold.
Consider `Cc1cc(-n2nc3c(c2N2C[C@@H]4COc5cc6c(cnn6C(C)(C)C)c(F)c5N4C2=O)[C@H](C)N(C(=O)c2cc4cc([C@H]5CCOC(C)(C)C5)ccc4n2[C@@]2(c4noc(=O)[nH]4)C[C@@H]2C)CC3)cc(C)c1F` [Compound 50, (R)-7-(tert-butyl)-2-((S)-5-(5-((S)-2,2-dimethyltetrahydro-2H-pyran-4-yl)-1-((1S,2S)-2-methyl-1-(5-oxo-4,5-dihydro-1,2,4-oxadiazol-3-yl)cyclopropyl)-1H-indole-2-carbonyl)-2-(4-fluoro-3,5-dimethylphenyl)-4-methyl-4,5,6,7-tetrahydro-2H-pyrazolo[4,3-c]pyridin-3-yl)-10-fluoro-2,3,3a,4-tetrahydro-1H,7H-imidazo[1',5':4,5][1,4]oxazino[3,2-f]indazol-1-one], for which the pEC50 is 10.40 and the Emax amounted to 18.87 fold.
